Patent US20260216172A1, “COMPOUNDS AND METHOD FOR TREATING HIV INFECTION” (The United States of America, as represented by the …, priority 2023, published 2026)
Read-outs that look alike come from different tables or passages of the source.

Tests used:
[1] = Cell viability of uninfected drug control wells, CEM-SS cells (XTT); format: cell-based; conditions: human, read-out: TC50
Procedure: (§1) (a) Anti-HIV Cytoprotection Evaluation: Inhibition of virus-induced cytopathic effects (CPE) and cell viability following HIV replication in CEM-SS cells were measured by the use of XTT tetrazolium dye. CEM-SS cells (2.5×10^3 cells per well) were seeded in 96-well U-bottomed tissue culture plates in RPMI medium supplemented with 10% FBS, 2 mM L-glutamine, 100 U/ml penicillin and 100 μg/ml streptomycin. Serially diluted compounds (6 concentrations) and HIV-1RF diluted to a pre-determined titer to yield 85 to 95% cell killing at 6 days post-infection were be added to the plate. AZT was evaluated in parallel as a positive control. Following incubation at 37° C., 5% CO2 for six days, cell viability was measured by XTT staining. The optical density of the cell culture plate will be determined spectrophotometrically at 450 and 650 nm using Softmax Pro 4.6 software. Percent CPE reduction of the virus-infected wells and the percent cell viability of uninfected drug control wells was calculated to define the EC50, TC50 and therapeutic index (TI50) using Microsoft Excel Xlfit4.
as §1, with “Inhibition” for “(a) Anti-HIV Cytoprotection Evaluation: Inhibition”, “by” for “by the use of”, “wells were” for “wells was”

[2] = system: HIV-192RW009; test: Anti-HIV-1 cytoprotection assay in PBMCs (reverse transcriptase in supernatant); format: cell-based; conditions: Human immunodeficiency virus 1, 168 h; PBMC, HIV-192RW009, 7 days
Procedure: (§2) (b) Anti-HIV-1 Cytoprotection Assay in PBMCs: PHA-P stimulated PBMCs from three donors were pooled together and re-suspended in fresh tissue culture medium at 1×10^6 cells/ml and plated in the interior wells of a 96 well round bottom microplate at 50 μL/well. A 100 μL volume of 2× concentrations of compound-containing media were transferred to the round-bottom 96-well plate containing the cells in triplicate. Fifty microliters (50 μL) of HIV-1 at a pre-determined dilution was added. Each plate contained cell control wells and virus control wells in parallel with the experimental wells. After 7 days in culture, efficacy was evaluated by measuring the reverse transcriptase in the culture supernatants and the cells were stained with the tetrazolium dye XTT to evaluate cytotoxicity.

[3] = Cytotoxicity in PBMCs (XTT); format: cell-based; conditions: human, PHA-P stimulated PBMCs pooled from three donors, read-out: TC50
Procedure: as §2
as §2, with “This Example illustrates anti-HIV cytoprotection provided by compounds” for “(b) Anti-HIV-1 Cytoprotection Assay”, “accordance with another aspect of the invention, namely in PBMCs.” for “PBMCs:”

[4] = system: HIV-1RF; test: Anti-HIV cytoprotection evaluation in CEM-SS cells (CPE inhibition, XTT); format: cell-based; conditions: Human immunodeficiency virus 1, 144 h, 6 days
Procedure: as §1
as §1, with “Inhibition” for “(a) Anti-HIV Cytoprotection Evaluation: Inhibition”, “by” for “by the use of”, “wells were” for “wells was”

[5] = system: HIV-1 HT92599 (B); test: Anti-HIV-1 cytoprotection assay in PBMCs, isolate HT92599 (B); format: cell-based; conditions: Human immunodeficiency virus 1, PBMC, CXCR4
Procedure: as §2, with “This Example illustrates anti-HIV cytoprotection provided by compounds” for “(b) Anti-HIV-1 Cytoprotection Assay”, “accordance with another aspect of the invention, namely in PBMCs.” for “PBMCs:”

[6] = system: PBMCs; test: Cytotoxicity in PBMCs (XTT); format: cell-based; conditions: PBMCs, read-out: TC50 (the source's name)
Procedure: as §2
as §2, with “This Example illustrates anti-HIV cytoprotection provided by compounds” for “(b) Anti-HIV-1 Cytoprotection Assay”, “accordance with another aspect of the invention, namely in PBMCs.” for “PBMCs:”

[7] = system: HIV-1 UG92001 (D); test: Anti-HIV-1 cytoprotection assay in PBMCs, isolate UG92001 (D); format: cell-based; conditions: Human immunodeficiency virus 1, PBMC, CXCR4/CCR5
Procedure: as §2, with “This Example illustrates anti-HIV cytoprotection provided by compounds” for “(b) Anti-HIV-1 Cytoprotection Assay”, “accordance with another aspect of the invention, namely in PBMCs.” for “PBMCs:”

[8] = system: HIV-1 CMU08 (E); test: Anti-HIV-1 cytoprotection assay in PBMCs, isolate CMU08 (E); format: cell-based; conditions: Human immunodeficiency virus 1, PBMC, CXCR4
Procedure: as §2, with “This Example illustrates anti-HIV cytoprotection provided by compounds” for “(b) Anti-HIV-1 Cytoprotection Assay”, “accordance with another aspect of the invention, namely in PBMCs.” for “PBMCs:”

[9] = system: HIV-1 BR93020 (F); test: Anti-HIV-1 cytoprotection assay in PBMCs, isolate BR93020 (F); format: cell-based; conditions: Human immunodeficiency virus 1, CCR5
Procedure: as §2, with “This Example illustrates anti-HIV cytoprotection provided by compounds” for “(b) Anti-HIV-1 Cytoprotection Assay”, “accordance with another aspect of the invention, namely in PBMCs.” for “PBMCs:”

[10] = Pharmacokinetic study in male CD-1 mice; format: in vivo; conditions: for tlast / AUC0-inf / AUC(0-t) / Cmax / MRT inf / Tmax / half-life: 18 and 19 measured as metabolites; for AUC0-inf: 5 mg/kg
Procedure: Male CD-1 mice weighing between […] were dosed via orbital sinus injection and blood was collected via submandibular vein. IV dosing solutions were prepared in DMSO:PEG400:Saline (5:35:60, v/v/v) at 1 mg/mL concentration of the prodrug. Blood samples (50 μL each time point) were obtained via Culex at predetermined time points (0, 5, 15, 30, 60, 120, 240, 360, 480 and 1440 min) after dosing. Plasma was obtained by centrifugation within 30 minutes after collection and aliquots of dosing solutions were taken and analyzed at the same time with plasma samples using a validated LC-MS/MS method developed on a Shimadzu HPLC system interfaced to a Sciex QTRAP 5500 mass spectrometer. Eluents were gradient mixtures of water and acetonitrile with 0.10% formic acid. HPLC column was ACE 5 C8, 50×2.1 mm, […]. PK parameters of the analytes were obtained using Phoenix®, WinNonlin® software (version 8.1).
The study was performed in male CD-1 mice to assess pharmacokinetics (PK) of prodrug 17 and its metabolites 18 and 19.

[11] = system: HIV-1 RW92009 (A); test: Anti-HIV-1 cytoprotection assay in PBMCs, isolate RW92009 (A); format: cell-based; conditions: Human immunodeficiency virus 1, PBMC, CXCR4/CCR5
Procedure: as §2, with “This Example illustrates anti-HIV cytoprotection provided by compounds” for “(b) Anti-HIV-1 Cytoprotection Assay”, “accordance with another aspect of the invention, namely in PBMCs.” for “PBMCs:”

[12] = system: HIV-1 ZA97009 (C); test: Anti-HIV-1 cytoprotection assay in PBMCs, isolate ZA97009 (C); format: cell-based; conditions: Human immunodeficiency virus 1, CCR5
Procedure: as §2, with “This Example illustrates anti-HIV cytoprotection provided by compounds” for “(b) Anti-HIV-1 Cytoprotection Assay”, “accordance with another aspect of the invention, namely in PBMCs.” for “PBMCs:”

[13] = system: HIV-1 RU132 (G); test: Anti-HIV-1 cytoprotection assay in PBMCs, isolate RU132 (G); format: cell-based; conditions: Human immunodeficiency virus 1, CCR5
Procedure: as §2, with “This Example illustrates anti-HIV cytoprotection provided by compounds” for “(b) Anti-HIV-1 Cytoprotection Assay”, “accordance with another aspect of the invention, namely in PBMCs.” for “PBMCs:”

[14] = system: HIV-1 BCF01 (O); test: Anti-HIV-1 cytoprotection assay in PBMCs, isolate BCF01 (O); format: cell-based; conditions: Human immunodeficiency virus 1, CCR5
Procedure: as §2, with “This Example illustrates anti-HIV cytoprotection provided by compounds” for “(b) Anti-HIV-1 Cytoprotection Assay”, “accordance with another aspect of the invention, namely in PBMCs.” for “PBMCs:”

[15] = system: simian immunodeficiency virus (SIV); conditions: SAMT-247 in combination with ΔV1DNA-ALVAC/gp120/alum vaccine; Rahman et al., Nature Microbiology 8; cited from earlier work
[16] = PBMC, HIV-192RW009, 7 days, XTT
[17] = mouse, in vivo, single IV bolus 5 mg/kg of compound 17, male CD-1 mice, plasma
[18] = single IV bolus 5 mg/kg of compound 17, male CD-1 mice, plasma
[19] = male, CD-1, mouse, in vivo, iv, single IV bolus 5 mg/kg of compound 17, male CD-1 mice, plasma, read-out: AUC0-inf

CCCC(=O)OCSc1ccccc1C(=O)NCCn1ccc(=O)c2cc(F)ccc21 [Compound 1, ((2-((2-(6-fluoro-4-oxoquinolin-1(4H)-yl)ethyl)carbamoyl)phenyl)thio)methyl butyrate]
CC50 at 6 days [1]: 56.2 µM
EC50 [2]: 2.48 µM
CC50 at 7 days [3, 16]: > 100 µM
EC50 [4]: 0.56 µM

CCCC(=O)OCSc1ccccc1C(=O)NCCn1ccc(=O)c2cc3c(cc21)OCO3 [Compound 2, ((2-((2-(8-oxo-[1,3]dioxolo[4,5-g]quinolin-5(8H)-yl)ethyl)carbamoyl)phenyl)thio)methyl butyrate]
CC50 at 6 days [1]: 32.2 µM
EC50 [2]: 0.48 µM
CC50 at 7 days [3, 16]: > 100 µM
EC50 [4]: 1.15 µM

Cn1cnc([N+](=O)[O-])c1Sc1ccccc1C(=O)NCCn1ccc(=O)c2cc3c(cc21)OCO3 [Compound 3, 2-((1-methyl-4-nitro-1H-imidazol-5-yl)thio)-N-(2-(8-oxo-[1,3]dioxolo[4,5-g]quinolin-5(8H)-yl)ethyl)benzamide]
EC50 [2]: 17.7 µM
CC50 at 7 days [3, 16]: > 100 µM

CCCC(=O)OCSc1ccccc1C(=O)NCCn1cc(C(=O)NCc2cccc(C)n2)c(=O)c2cc3c(cc21)OCO3 [Compound 4, ((2-((2-(7-(((6-methylpyridin-2-yl)methyl)carbamoyl)-8-oxo-[1,3]dioxolo[4,5-g]quinolin-5(8H)-yl)ethyl)carbamoyl)phenyl)thio)methyl butyrate]
CC50 at 6 days [1]: > 100 µM
EC50 [2]: 1.09 µM
CC50 at 7 days [3, 16]: > 100 µM
EC50 [4]: 0.48 µM

CCCC(=O)OCSc1ccccc1C(=O)NCCn1cc(C(=O)NCc2ccccn2)c(=O)c2cc3c(cc21)OCO3 [Compound 5, ((2-((2-(8-oxo-7-((pyridin-2-ylmethyl)carbamoyl)-[1,3]dioxolo[4,5-g]quinolin-5(8H)-yl)ethyl)carbamoyl)phenyl)thio)methyl butyrate]
CC50 at 6 days [1]: > 100 µM
EC50 [2]: 0.91 µM
CC50 at 7 days [3, 16]: > 100 µM
EC50 [4]: 0.54 µM

Cc1cccc(CNC(=O)c2cn(CCNC(=O)c3ccccc3Sc3c([N+](=O)[O-])ncn3C)c3cc4c(cc3c2=O)OCO4)n1 [Compound 6, 5-(2-(2-((1-methyl-4-nitro-1H-imidazol-5-yl)thio)benzamido)ethyl)-N-((6-methylpyridin-2-yl)methyl)-8-oxo-5,8-dihydro-[1,3]dioxolo[4,5-g]quinoline-7-carboxamide]
EC50 [2]: 30.9 µM
CC50 at 7 days [3, 16]: > 100 µM

CCCC(=O)OCSc1ccccc1C(=O)NCCn1cc(C(=O)NCc2cccc(C)n2)c(=O)c2cc3c(cc21)OC(F)(F)O3 [Compound 17, ((2-((2-(2,2-difluoro-7-(((6-methylpyridin-2-yl)methyl)carbamoyl)-8-oxo-[1,3]dioxolo[4,5-g]quinolin-5(8H)-yl)ethyl)carbamoyl)phenyl)thio)methyl butyrate]
CC50 at 6 days [1]: > 100 µM
EC50 [5]: 6.52 µM
CC50 at 7 days ([3]; PBMCs, line of isolate CMU08 (E)): > 100 µM
CC50 ([6]; line of isolate BCF01 (O)): > 100 µM
CC50 ([6]; line of isolate BR93020 (F)): > 100 µM
CC50 ([6]; line of isolate HT92599 (B)): > 100 µM
CC50 ([6]; line of isolate RU132 (G)): > 100 µM
CC50 ([6]; line of isolate RW92009 (A)): > 100 µM
CC50 ([6]; line of isolate UG92001 (D)): > 100 µM
CC50 ([6]; line of isolate ZA97009 (C)): > 100 µM
EC50 [7]: 5.14 µM
EC50 [8]: 5.23 µM
EC50 [9]: 2.01 µM
EC50 [4]: 1.48 µM
clearance ([10]; mouse, in vivo, single IV bolus 5 mg/kg of compound 17, male CD-1 mice): 136 mL/min/kg
C0 [10, 17]: 1910 ng/mL
Vd ([10]; mouse, in vivo, single IV bolus 5 mg/kg of compound 17, male CD-1 mice, read-out: Vss): 9.6 L/kg
tlast [10, 18]: 8.00 h
EC50 [11]: 4.26 µM
EC50 [12]: 10.7 µM
EC50 [13]: 6.85 µM
EC50 [14]: 7.79 µM

Cc1cccc(CNC(=O)c2cn(CCNC(=O)c3ccccc3Sc3c([N+](=O)[O-])ncn3C)c3cc4c(cc3c2=O)OC(F)(F)O4)n1 [Compound 18, 2,2-difluoro-5-(2-(2-((1-methyl-4-nitro-1H-imidazol-5-yl)thio)benzamido)ethyl)-N-((6-methylpyridin-2-yl)methyl)-8-oxo-5,8-dihydro-[1,3]dioxolo[4,5-g]quinoline-7-carboxamide]
AUC0-inf [10, 19]: 42.5 ng·h/mL
Exposure (AUC0-t) lower than that of 17 ([10]; metabolite versus 17 after single IV bolus 5 mg/kg of 17, male mice): approximately 17 fold
AUC(0-t) [10, 17]: 34.8 ng·h/mL
Cmax [10, 17]: 75.6 ng/mL
MRT inf [10, 17]: 224 min
Tmax [10, 17]: 4.98 min
half-life [10, 17]: 164 min
tlast [10, 18]: 8.00 h
AUC0-inf [10, 18]: 34.8 ng·h/mL

Cc1cccc(CNC(=O)c2cn(CCNC(=O)c3ccccc3S)c3cc4c(cc3c2=O)OC(F)(F)O4)n1 [Compound 19]
AUC0-inf [10, 19]: 13.1 ng·h/mL
AUC(0-t) [10, 17]: 12.8 ng·h/mL
Cmax [10, 17]: 46.9 ng/mL
MRT inf [10, 17]: 19.8 min
Tmax [10, 17]: 4.98 min
half-life [10, 17]: 21 min
tlast [10, 18]: 2.00 h
AUC0-inf [10, 18]: 12.8 ng·h/mL

CC(=O)Sc1ccccc1C(=O)NCCC(N)=O [SAMT-247, 3-(S-acetylthiosalicyloyl)aminopropamide or N-[2-ccetylthiobenzoyl]-β-alaninamide]
female macaques protected against vaginal acquisition of SIV [15]: 16 out of 20
